Assay results as given in US4374040A, “Aminoalkylenephosphonic acids and salts thereof and their use in aqueous systems” (Buckman Laboratories, Inc., priority 1980, dated 1983).

Legend:
[1] = Calcium Carbonate Antiprecipitation Tests; conditions: 18 hours, 25° C.
Experimental: To evaluate the effect of the aminoalkylenephosphonic acids of this invention on the precipitation of calcium carbonate, measured volumes of stock solution (prepared with demineralized water) of the phosphonic acids or their sodium salts were added to 100 ml. portions of a calcium chloride solution (0.2936 g. CaCl2.2H2 O per 100 ml. of solution). Then 100 ml. of a sodium bicarbonate solution (0.168 g. NaHCO3 per 100 ml. of solution) was added to each portion of calcium chloride solution. The test solutions were then agitated on a gyratory shaker table for 18 hours at a temperature of 25° C. At the end of this time, insoluble material was removed by filtration through a Millipore membrane filter, and the calcium ion concentration in the filtrate was determined with an atomic absorption spectrophotometer. […] The compounds tested were as follows:
A. Tetrahydro-N,N-bis(phosphonomethyl)-3-thiophenamine 1,1-dioxide (30 percent)
B. Thirty percent solution of the trisodium salt of A
D. Tetrahydro-N,N,N',N'-tetrakis(phosphonomethyl)-3,4-thiophenediamine 1,1-dioxide (30 percent)
E. 3-Hydrazinotetrahydro-N,N-bis(phosphonomethyl)thiophene 1,1-dioxide (30 percent)
F. Tetrahydro-N-(2-hydroxyethyl)-N-(phosphonomethyl)-3-thiophenamine 1,1-dioxide (30 percent)

[2] = Barium Sulfate Antiprecipitation Tests; conditions: pH 7; for Percent inhibition of barium sulfate precipitation: 18 hours, 25° C.
Experimental: To evaluate the effect of the aminoalkylenephosphonic acids of this invention in inhibiting the precipitation of barium sulfate, the desire volumes of stock solutions of the phosphonic acids or their sodium salts (prepared with demineralized water) were added to 10-ml. aliquots of a barium chloride solution containing 5.35 g. BaCl2.H2 O per liter. The volume of each was made up to 175 ml. with demineralized water, and the pH was adjusted to 7.0 with dilute NaOH or HCl. A 25-ml. aliquot of a sodium sulfate solution (1.24 g. Na2 SO4 per liter) was then added to each. The test solutions were agitated on a gyratory shaker table for 18 hours at 25° C. At the end of this time, insoluble material was removed by filtration and the barium ion concentration was determined with an atomic absorption unit. The percent inhibition was calulated and the results are included in Table 3. Compound C was described in Example 15 and Compound H was described in Example 16. Compound I was an aqueous solution containing 22.5 percent of the trisodium salt of tetrahydro-N,N-bis(phosphonomethyl)-3-thiophenamine 1,1-dioxide and 7.5 percent of a poly(acrylic acid) having a molecular weight of about 4000. Compound J was an aqueous solution containing 7.5 percent of tetrahydro-N,N-bis(phosphononmethyl)-3-thiophenamine 1,1-dioxide and 22.5 percent of a poly(acrylic acid) having a molecular weight of about 4000. Since the percent inhibition results were lower that those obtainined in Examples 15 and 16, a well known scale inhibitor was included in this test for comparison.

[3] = Calcium Sulfate Antiprecipitation Tests; conditions: pH 7, 18 hours, 50° C.
Experimental: Inhibition of calcium sulfate precipitation by the aminoalkylenephosphonic acids of this invention was evaluated by adding the desired volumes of stock solutions of the phosphonic acids or their sodium salts (prepared with demineralized water) to 10-ml. aliquots of a calcium chloride solution containing 162.9 g. of CaCl2 per liter. The volume of each was made up to 175 ml. with demineralized water, and the pH was adjusted to 7.0 with dilute NaOH or HCl. A 25-ml. aliquot of a sodium sulfate solution (83.84 g. Na2 SO4 per liter) was then added to each. The test solutions were maintained for 18 hours at a temperature of 50° C. A portion of each was filtered while still hot to remove insoluble materials and the filtrate was analyzed for calcium by means of an atomic absorption instrument. The percent inhibition was calculated and the results are included in Table 2.

SMILES	percent inhibition of calcium carbonate precipitation ([1]; pH 8.5, 1 parts per million) [%]	percent inhibition of calcium carbonate precipitation ([1]; pH 8.5, 3 parts per million) [%]	percent inhibition of calcium carbonate precipitation ([1]; pH 8.5, 5 parts per million) [%]	percent inhibition of calcium carbonate precipitation ([1]; pH 8.5, 10 parts per million) [%]	percent inhibition of calcium carbonate precipitation ([1]; pH 8.5, 25 parts per million) [%]	percent inhibition of calcium carbonate precipitation ([1]; pH 8.5, 50 parts per million) [%]	Percent inhibition of calcium sulfate precipitation ([3]; 1 parts per million) [%]	Percent inhibition of calcium sulfate precipitation ([3]; 3 parts per million) [%]	Percent inhibition of calcium sulfate precipitation ([3]; 5 parts per million) [%]	Percent inhibition of calcium sulfate precipitation ([3]; 10 parts per million) [%]	Percent inhibition of calcium sulfate precipitation ([3]; 25 parts per million) [%]	Percent inhibition of calcium sulfate precipitation ([3]; 50 parts per million) [%]	percent inhibition of calcium carbonate precipitation ([1]; pH 9.0, 1 parts per million) [%]	percent inhibition of calcium carbonate precipitation ([1]; pH 9.0, 3 parts per million) [%]	percent inhibition of calcium carbonate precipitation ([1]; pH 9.0, 5 parts per million) [%]	percent inhibition of calcium carbonate precipitation ([1]; pH 9.0, 10 parts per million) [%]	percent inhibition of calcium carbonate precipitation ([1]; pH 9.0, 25 parts per million) [%]	percent inhibition of calcium carbonate precipitation ([1]; pH 9.0, 50 parts per million) [%]	also measured
O=P(O)(O)CN(CP(=O)(O)O)C1CCS(=O)(=O)C1 (centres unmarked) [A, Tetrahydro-N,N-bis(phosphonomethyl)-3-thiophenamine 1,1-dioxide]	83	84	78	85	73	71	–	–	–	–	–	–	–	–	–	–	–	–	–
O=P(O)(O)CN(CP(=O)(O)O)CP(=O)(O)O [Compound K, nitrilotris(methylenephosphonic acid)]	–	–	–	–	–	–	–	–	–	–	–	–	–	–	–	–	–	–	Percent inhibition of barium sulfate precipitation ([2]; 5 parts per million): 5%; Percent inhibition of barium sulfate precipitation ([2]; 10 parts per million): 5%; Percent inhibition of barium sulfate precipitation ([2]; 25 parts per million): 6%; Percent inhibition of barium sulfate precipitation ([2]; 50 parts per million): 12%; effectiveness in inhibiting barium sulfate precipitation, compared with the combinations ([2]; in words): less than that of the combinations containing tetrahydro-N,N-bis(phosphonomethyl)-3-thiophenamine 1,1-dioxide
O=P(O)(O)CN(CP(=O)(O)O)C1CS(=O)(=O)CC1N(CP(=O)(O)O)CP(=O)(O)O (centres unmarked) [D, Tetrahydro-N,N,N',N'-tetrakis(phosphonomethyl)-3,4-thiophenediamine 1,1-dioxide]	78	73	73	71	70	70	–	–	–	–	–	–	–	–	–	–	–	–	–
O=P(O)(O)CN(CCO)C1CCS(=O)(=O)C1 (centres unmarked) [F, Tetrahydro-N-(2-hydroxyethyl)-N-(phosphonomethyl)-3-thiophenamine 1,1-dioxide]	27	25	27	25	38	32	41	38	39	43	61	88	–	–	–	–	–	–	–
O=P(O)(O)CN(CP(=O)(O)O)NC1CCS(=O)(=O)C1 (centres unmarked) [E, 3-Hydrazinotetrahydro-N,N-bis(phosphonomethyl)thiophene 1,1-dioxide]	82	82	77	79	100	91	38	38	38	38	40	45	78	79	79	79	70	86	–
O=P(O)(O)CN(CP(=O)(O)O)C1CCS(=O)(=O)C1 (centres unmarked) [B]	92	87	92	91	93	94	40	52	55	78	95	100	9	11	89	85	16	86	–
